pIC50: −log10 of the molar value.
What was measured:
LRRK2 wild type enzyme = LRRK2 wild type enzyme (Homo sapiens, UniProt Q5S007); assay: Biochemical Assay: LRRK2 TR-FRET (LanthaScreen) kinase assay with LRRKtide substrate; settings: LRRK2 Inhibition, Table 8
In short: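 TR-FRET detection (Tb-labelled phospho-LRRKtide antibody, EDTA stop, 30 min) followed a 120 min, 23 °C reaction of 3 nM wild-type human LRRK2 with LRRKtide (400 nM) and ATP (25 μM) in Tris pH 8.0. Compounds: 11-point 3-fold series from 10 μM, 15 min enzyme preincubation.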

[1] = target: T1, wild type LRRK2 overexpressed in recombinant HEK-293T cells (Homo sapiens, UniProt Q5S007); assay: pS935 LRRK2 Cell Assay (HTRF, phospho-LRRK2 Ser935); type: cell-based; settings: LRRK2 Inhibition, Table 8, 2 hours compound incubation
T1 construct: host or cells: HEK293T (transient transfection with pCMV-LRRK2 WT plasmid)
In short: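 Phospho-Ser935 LRRK2 measured by two-antibody HTRF (Eu-cryptate donor, d2 acceptor; 665/615 nm ratio) after overnight detection at 23° C. Before lysis, transiently LRRK2-transfected HEK-293T cells were exposed 2 h at 37° C to a 9-point, 3-fold series from 10 μM, with DMSO at 0.2%.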

T1 sequence (Q5S007 whole entry): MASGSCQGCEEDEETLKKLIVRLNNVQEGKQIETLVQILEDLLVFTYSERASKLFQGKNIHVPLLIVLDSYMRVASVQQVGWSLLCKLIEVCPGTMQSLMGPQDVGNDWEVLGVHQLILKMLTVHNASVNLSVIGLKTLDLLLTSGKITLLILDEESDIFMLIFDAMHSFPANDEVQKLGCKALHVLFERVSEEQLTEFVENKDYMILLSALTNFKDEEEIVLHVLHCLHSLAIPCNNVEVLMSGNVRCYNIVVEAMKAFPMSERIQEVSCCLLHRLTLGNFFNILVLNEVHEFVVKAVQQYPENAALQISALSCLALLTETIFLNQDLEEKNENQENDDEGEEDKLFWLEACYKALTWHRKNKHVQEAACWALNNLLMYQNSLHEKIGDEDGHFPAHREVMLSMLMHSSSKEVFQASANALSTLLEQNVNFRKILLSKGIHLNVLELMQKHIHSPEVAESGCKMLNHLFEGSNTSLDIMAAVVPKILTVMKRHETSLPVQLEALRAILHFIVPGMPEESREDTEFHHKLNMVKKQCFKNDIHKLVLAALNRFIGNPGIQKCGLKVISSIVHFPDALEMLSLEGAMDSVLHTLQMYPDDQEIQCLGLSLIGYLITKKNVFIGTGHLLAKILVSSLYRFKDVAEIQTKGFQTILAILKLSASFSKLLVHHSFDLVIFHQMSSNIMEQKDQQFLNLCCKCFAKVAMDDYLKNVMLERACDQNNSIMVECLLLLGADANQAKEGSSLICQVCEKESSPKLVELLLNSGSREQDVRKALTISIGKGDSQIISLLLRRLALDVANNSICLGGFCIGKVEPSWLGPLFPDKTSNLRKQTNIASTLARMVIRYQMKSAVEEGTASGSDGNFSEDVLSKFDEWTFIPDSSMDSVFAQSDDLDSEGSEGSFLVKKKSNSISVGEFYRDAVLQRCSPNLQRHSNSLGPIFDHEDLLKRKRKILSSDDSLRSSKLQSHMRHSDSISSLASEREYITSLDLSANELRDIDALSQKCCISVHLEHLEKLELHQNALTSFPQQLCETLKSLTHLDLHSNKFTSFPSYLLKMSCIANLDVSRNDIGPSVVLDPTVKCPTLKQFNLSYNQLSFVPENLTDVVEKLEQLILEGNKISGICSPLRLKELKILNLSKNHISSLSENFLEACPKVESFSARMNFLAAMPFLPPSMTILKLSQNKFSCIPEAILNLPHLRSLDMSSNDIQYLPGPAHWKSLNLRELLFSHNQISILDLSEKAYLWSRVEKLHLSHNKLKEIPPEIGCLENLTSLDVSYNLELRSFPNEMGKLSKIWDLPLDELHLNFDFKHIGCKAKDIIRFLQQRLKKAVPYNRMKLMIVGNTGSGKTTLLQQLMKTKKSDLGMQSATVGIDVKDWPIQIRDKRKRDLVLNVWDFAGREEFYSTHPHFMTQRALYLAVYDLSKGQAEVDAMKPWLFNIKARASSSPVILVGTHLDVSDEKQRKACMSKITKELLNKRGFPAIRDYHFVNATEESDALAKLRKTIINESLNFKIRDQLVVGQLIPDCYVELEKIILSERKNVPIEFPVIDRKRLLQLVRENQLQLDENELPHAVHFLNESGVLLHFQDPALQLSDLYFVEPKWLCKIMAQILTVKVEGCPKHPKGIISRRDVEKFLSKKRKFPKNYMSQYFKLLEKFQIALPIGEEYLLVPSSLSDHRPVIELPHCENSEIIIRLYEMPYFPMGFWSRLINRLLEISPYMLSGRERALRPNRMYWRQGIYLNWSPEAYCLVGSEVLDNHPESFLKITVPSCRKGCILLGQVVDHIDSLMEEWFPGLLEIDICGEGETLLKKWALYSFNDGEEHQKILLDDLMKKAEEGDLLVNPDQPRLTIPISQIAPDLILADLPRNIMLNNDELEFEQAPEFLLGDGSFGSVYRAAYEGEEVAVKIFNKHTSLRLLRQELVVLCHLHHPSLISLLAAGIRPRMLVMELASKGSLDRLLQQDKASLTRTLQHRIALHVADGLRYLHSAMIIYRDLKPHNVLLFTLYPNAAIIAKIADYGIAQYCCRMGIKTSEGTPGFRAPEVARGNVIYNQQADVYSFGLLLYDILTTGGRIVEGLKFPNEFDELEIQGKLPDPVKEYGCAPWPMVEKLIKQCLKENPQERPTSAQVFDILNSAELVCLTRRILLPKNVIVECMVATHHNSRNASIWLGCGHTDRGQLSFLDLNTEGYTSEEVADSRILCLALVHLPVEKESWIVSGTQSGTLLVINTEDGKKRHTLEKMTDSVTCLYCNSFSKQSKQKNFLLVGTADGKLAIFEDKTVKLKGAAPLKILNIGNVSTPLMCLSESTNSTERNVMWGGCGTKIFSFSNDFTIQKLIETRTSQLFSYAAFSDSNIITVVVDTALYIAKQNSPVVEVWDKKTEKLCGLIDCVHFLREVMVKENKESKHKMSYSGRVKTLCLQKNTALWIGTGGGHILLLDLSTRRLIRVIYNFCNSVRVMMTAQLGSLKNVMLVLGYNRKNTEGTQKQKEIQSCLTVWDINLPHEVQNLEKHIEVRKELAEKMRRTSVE
LRRK2 wild type enzyme, sequence (Q5S007 whole entry): as above

SMILES	pIC50 (LRRK2 wild type enzyme)	pIC50 [1]
COc1ncc(NC(=O)Cc2nc3cnc4ccc(C#N)cc4c3n2[C@@H]2CCO[C@H](C)C2)c(OC)n1 [Compound 295, N-(2,4-dimethoxy-5-pyrimidinyl){3-[(2R,4R)-2-methyltetrahydro-2H-pyran-4-yl]-12-cyano-3,5,8-triazatricyclo[7.4.0.0^2,6]trideca-1,4,6,8,10,12-hexaen-4-yl}acetamide]	9.34	8.33
Cc1nn(C)c(Cl)c1NC(=O)Cc1nc2cnc3ccc(C#N)cc3c2n1[C@@H]1CCO[C@H](C)C1 [Compound 296, N-(5-chloro-1-methyl-3-methyl-4-pyrazolyl){3-[(2R,4R)-2-methyltetrahydro-2H-pyran-4-yl]-12-cyano-3,5,8-triazatricyclo[7.4.0.0^2,6]trideca-1,4,6,8,10,12-hexaen-4-yl}acetamide]	9.34	8.12
C[C@@H]1C[C@H](n2c(CC(=O)Nc3ccc(Cl)nc3)nc3cnc4ccc(C#N)cc4c32)CCO1 [Compound 297, N-(6-chloro-3-pyridyl){3-[(2R,4R)-2-methyltetrahydro-2H-pyran-4-yl]-12-cyano-3,5,8-triazatricyclo[7.4.0.0^2,6]trideca-1,4,6,8,10,12-hexaen-4-yl}acetamide]	9.65	8.40
COc1ccc(NC(=O)Cc2nc3cnc4ccc(C#N)cc4c3n2[C@@H]2CCO[C@H](C)C2)cn1 [Compound 298, N-(6-methoxy-3-pyridyl){3-[(2R,4R)-2-methyltetrahydro-2H-pyran-4-yl]-12-cyano-3,5,8-triazatricyclo[7.4.0.0^2,6]trideca-1,4,6,8,10,12-hexaen-4-yl}acetamide]	9.46	8.26
C[C@@H]1C[C@H](n2c(CC(=O)Nc3ccc(F)nc3)nc3cnc4ccc(C#N)cc4c32)CCO1 [Compound 299, N-(6-fluoro-3-pyridyl){3-[(2R,4R)-2-methyltetrahydro-2H-pyran-4-yl]-12-cyano-3,5,8-triazatricyclo[7.4.0.0^2,6]trideca-1,4,6,8,10,12-hexaen-4-yl}acetamide]	9.41	7.98
C[C@@H]1C[C@H](n2c(CC(=O)Nc3cnc(C4CC4)nc3)nc3cnc4ccc(C#N)cc4c32)CCO1 [Compound 300, N-(2-cyclopropyl-5-pyrimidinyl){3-[(2R,4R)-2-methyltetrahydro-2H-pyran-4-yl]-12-cyano-3,5,8-triazatricyclo[7.4.0.0^2,6]trideca-1,4,6,8,10,12-hexaen-4-yl}acetamide]	9.42	7.97
CO[C@H]1C[C@@H](NC(=O)Cc2nc3cnc4ccc(C#N)cc4c3n2[C@@H]2CCO[C@H](C)C2)C1 [Compound 301, N-[(1s,3s)-3-methoxycyclobutyl]{3-[(2R,4R)-2-methyltetrahydro-2H-pyran-4-yl]-12-cyano-3,5,8-triazatricyclo[7.4.0.0^2,6]trideca-1,4,6,8,10,12-hexaen-4-yl}acetamide]	9.15	7.38
C[C@@H]1C[C@H](n2c(CC(=O)NC3CC=CC3)nc3cnc4ccc(C#N)cc4c32)CCO1 [Compound 302, N-(3-cyclopenten-1-yl){3-[(2R,4R)-2-methyltetrahydro-2H-pyran-4-yl]-12-cyano-3,5,8-triazatricyclo[7.4.0.0^2,6]trideca-1,4,6,8,10,12-hexaen-4-yl}acetamide]	9.32	8.00
C[C@@H]1C[C@H](n2c(CC(=O)NC3(C)CCC3)nc3cnc4ccc(C#N)cc4c32)CCO1 [Compound 303, N-1-methylcyclobutyl{3-[(2R,4R)-2-methyltetrahydro-2H-pyran-4-yl]-12-cyano-3,5,8-triazatricyclo[7.4.0.0^2,6]trideca-1(13),2(6),4,7,9,11-hexaen-4-yl}acetamide]	8.89	7.33
C[C@@H]1C[C@H](n2c(CC(=O)Nc3cnn(C4COC4)c3)nc3cnc4ccc(C#N)cc4c32)CCO1 [Compound 304, N-[1-(3-oxetanyl)-4-pyrazolyl]{3-[(2R,4R)-2-methyltetrahydro-2H-pyran-4-yl]-12-cyano-3,5,8-triazatricyclo[7.4.0.0^2,6]trideca-1(13),2(6),4,7,9,11-hexaen-4-yl}acetamide]	9.13	6.97
C[C@@H]1C[C@H](n2c(CC(=O)Nc3cnn(C4CCC4)c3)nc3cnc4ccc(C#N)cc4c32)CCO1 [Compound 305, N-(1-cyclobutyl-4-pyrazolyl){3-[(2R,4R)-2-methyltetrahydro-2H-pyran-4-yl]-12-cyano-3,5,8-triazatricyclo[7.4.0.0^2,6]trideca-1,4,6,8,10,12-hexaen-4-yl}acetamide]	9.20	7.91
CC(C)n1cc(NC(=O)Cc2nc3cnc4ccc(C#N)cc4c3n2[C@@H]2CCO[C@H](C)C2)cn1 [Compound 306, N-(1-isopropyl-4-pyrazolyl){3-[(2R,4R)-2-methyltetrahydro-2H-pyran-4-yl]-12-cyano-3,5,8-triazatricyclo[7.4.0.0^2,6]trideca-1(13),2(6),4,7,9,11-hexaen-4-yl}acetamide]	9.14	7.80
C[C@@H]1C[C@H](n2c(CC(=O)Nc3cnn(C4CC4)c3)nc3cnc4ccc(C#N)cc4c32)CCO1 [Compound 307, N-(1-cyclopropyl-4-pyrazolyl){3-[(2R,4R)-2-methyltetrahydro-2H-pyran-4-yl]-12-cyano-3,5,8-triazatricyclo[7.4.0.0^2,6]trideca-1(13),2(6),4,7,9,11-hexaen-4-yl}acetamide]	9.17	7.76
C[C@@H]1C[C@H](n2c(CC(=O)Nc3nccnc3Cl)nc3cnc4ccc(C#N)cc4c32)CCO1 [Compound 308, N-(3-chloro-2-pyrazinyl){3-[(2R,4R)-2-methyltetrahydro-2H-pyran-4-yl]-12-cyano-3,5,8-triazatricyclo[7.4.0.0^2,6]trideca-1(9),2(6),4,7,10,12-hexaen-4-yl}acetamide]	8.90	7.73
C[C@@H]1C[C@H](n2c(CC(=O)NC3CCCCC3)nc3cnc4ccc(C#N)cc4c32)CCO1 [Compound 309, N-cyclohexyl{3-[(2R,4R)-2-methyltetrahydro-2H-pyran-4-yl]-12-cyano-3,5,8-triazatricyclo[7.4.0.0^2,6]trideca-1,4,6,8,10,12-hexaen-4-yl}acetamide]	9.20	7.84
CCn1cc(NC(=O)Cc2nc3cnc4ccc(C#N)cc4c3n2[C@@H]2CCO[C@H](C)C2)cn1 [Compound 310, N-(1-ethyl-4-pyrazolyl){3-[(2R,4R)-2-methyltetrahydro-2H-pyran-4-yl]-12-cyano-3,5,8-triazatricyclo[7.4.0.0^2,6]trideca-1,4,6,8,10,12-hexaen-4-yl}acetamide]	9.15	7.81
Cc1nccnc1NC(=O)Cc1nc2cnc3ccc(C#N)cc3c2n1[C@@H]1CCO[C@H](C)C1 [Compound 311, N-(3-methyl-2-pyrazinyl){3-[(2R,4R)-2-methyltetrahydro-2H-pyran-4-yl]-12-cyano-3,5,8-triazatricyclo[7.4.0.0^2,6]trideca-1(9),2(6),4,7,10,12-hexaen-4-yl}acetamide]	9.23	8.00
COc1nccnc1NC(=O)Cc1nc2cnc3ccc(C#N)cc3c2n1[C@@H]1CCO[C@H](C)C1 [Compound 312, N-(3-methoxy-2-pyrazinyl){3-[(2R,4R)-2-methyltetrahydro-2H-pyran-4-yl]-12-cyano-3,5,8-triazatricyclo[7.4.0.0^2,6]trideca-1(9),2(6),4,7,10,12-hexaen-4-yl}acetamide]	9.24	8.25
C[C@@H]1C[C@H](n2c(CC(=O)Nc3cnoc3)nc3cnc4ccc(Cl)cc4c32)CCO1 [Compound 313]	9.14	8.15
Cc1cncc(NC(=O)Cc2nc3cnc4ccc(C#N)cc4c3n2[C@@H]2CCO[C@H](C)C2)n1 [Compound 314, N-(6-methyl-2-pyrazinyl){3-[(2R,4R)-2-methyltetrahydro-2H-pyran-4-yl]-12-cyano-3,5,8-triazatricyclo[7.4.0.0^2,6]trideca-1(9),2(6),4,7,10,12-hexaen-4-yl}acetamide]	9.27	8.63
Cc1cnc(NC(=O)Cc2nc3cnc4ccc(C#N)cc4c3n2[C@@H]2CCO[C@H](C)C2)cn1 [Compound 315, N-(5-methyl-2-pyrazinyl){3-[(2R,4R)-2-methyltetrahydro-2H-pyran-4-yl]-12-cyano-3,5,8-triazatricyclo[7.4.0.0^2,6]trideca-1(9),2(6),4,7,10,12-hexaen-4-yl}acetamide]	9.33	8.60
Cc1ncccc1NC(=O)Cc1nc2cnc3ccc(C#N)cc3c2n1[C@@H]1CCO[C@H](C)C1 [Compound 316, N-(2-methyl-3-pyridyl){3-[(2R,4R)-2-methyltetrahydro-2H-pyran-4-yl]-12-cyano-3,5,8-triazatricyclo[7.4.0.0^2,6]trideca-1(9),2(6),4,7,10,12-hexaen-4-yl}acetamide]	9.28	8.17
C[C@@H]1C[C@H](n2c(CC(=O)Nc3cccnc3F)nc3cnc4ccc(C#N)cc4c32)CCO1 [Compound 317, N-(2-fluoro-3-pyridyl){3-[(2R,4R)-2-methyltetrahydro-2H-pyran-4-yl]-12-cyano-3,5,8-triazatricyclo[7.4.0.0^2,6]trideca-1(9),2(6),4,7,10,12-hexaen-4-yl}acetamide]	9.30	8.39
COc1ncccc1NC(=O)Cc1nc2cnc3ccc(C#N)cc3c2n1[C@@H]1CCO[C@H](C)C1 [Compound 318, N-(2-methoxy-3-pyridyl){3-[(2R,4R)-2-methyltetrahydro-2H-pyran-4-yl]-12-cyano-3,5,8-triazatricyclo[7.4.0.0^2,6]trideca-1(9),2(6),4,7,10,12-hexaen-4-yl}acetamide]	9.30	8.69

— patent publication US20250270209A1 (INTERLINE THERAPEUTICS, INC., priority 2022, published 2025)
